The results in this text go back to patent US12168003B2, “Selective inhibition of T follicular helper cells for treatment of autoimmune disorders” (priority 2019, dated 2024).

Assay [1] deals with OT2 T cells. Kind of assay: OT2 T cell pre-treatment with 4EGI-1 before adoptive transfer. The format is in vivo, mouse. As to conditions: 20 μM 4EGI-1 1 hour before transfer. On the procedure:
For functional TFH studies: OT2 T cells were isolated and activated, as described, and treated with vehicle or 20 μM 4EGI-1 for 1 hour at 37° C. in vitro prior to transfer of 2×10^6 OT2 T cells i.p. per CD45.1 recipient. Recipient animals were immunized with 100 μg OVA alum 4 days prior. Three days following transfer and 7 days following initial immunization, OT2 T cells that had formed TFH cells were determined.
For long-term studies: OT2 T cells were isolated and activated, as described, and treated with vehicle or 20 μM 4EGI-1 for 1 h at 37° C. in vitro prior to transfer of 12×10^6 OT2 T cells i.p. per CD45.1 recipient. OT2 T cells were enumerated 34 days post transfer and intracellular levels of eIF4E were determined.

Assay [2] has as its system TH1 and TH17 cells. Kind of assay: S. aureus sub-dermal ear pinnae infection model. The format is in vivo, mouse. On the procedure: S. aureus subspecies Rosenbach (ATCC 25923) was grown overnight in TSB broth (Corning). Following quantification, 1×10^8 CFU of S. aureus in 100 μL were injected subdermal in the base of the ear pinnae. On days 0 through 7, mice were treated daily with i.p. 25 mg/kg 4EGI-1 or vehicle. On day 8, mice were euthanized and the whole infected ear was collected along with the cervical lymph node (CLN) and blood. Blood was allowed to clot at room temperature, spun at 2,000×g for 30 minutes, and serum was collected and frozen until analysis. Ear thickness was measured with a digital caliper on day 8.
Spleens, draining lymph nodes, and brains were dissociated with the plunger-end of a syringe and passed through a 70 μm nylon filter. Splenocytes were subject to RBC lysis with ACK (Ammonium-Chloride-Potassium). Ears were subject to mechanical dissociation with scissors prior to incubation in 1 mL PBS in a 48-well plate with 100 μg/mL Liberase TL and 20 μg/mL DNase I for 1.5 hours at 37° C. Following incubation, cells were further dissociated by passing through a syringe, quenched with PBS+2% FCS, and filtered through a 70 μm nylon filter. Lungs were mechanically dissociated with a razor blade and incubated in a 6 cm dish with 5 mLs RPMI containing 250 μg/mL collagenase, 50 μg/mL Liberase TL, 1 mg/mL hyaluronidase, and 200 μg/mL DNase I for 30 minutes. Following incubation, cells quenched with PBS+2% FCS, and filtered through a 70 μm nylon filter. Ear and lung cells were subject to lymphocyte isolation using a gradient (Lymphocyte Separation Medium; Cellgro). Vertebral columns were flushed with PBS through a 19-gauge needle to remove intact spinal cords. Spinal cords were subject to mechanical dissociation with scissors and incubation in 1 mL PBS with 200 μg/mL DNase I and 50 μg/mL Liberase TL for 30 minutes at 37° C. Following incubation, cells were quenched with PBS+2% FCS and filtered through a 70 μm nylon filter.
Single cell suspensions of noted tissues were resuspended in T cell media with 1× PMA/Ionomycin (cell activation cocktail; BioLegend®) and 1× brefeldin A (BioLegend®) for 5-6 hours at 37° C. Following stimulation, cells were incubated with a live/dead viability marker and extracellular stain prior to fix and permeabilization with Fixation/Permeabilization Solution kit (BD Biosciences) according to manufacturer's instructions to detect intracellular cytokines IL-17A, IFN-γ, or IL-13. Concentration and clones of flow cytometry antibodies used for staining detailed in Table 2.
For quantification of OVA-specific IgG1, high-binding 96-well plates (Costar) were coated with 10 μg/mL OVA protein. For S. aureus-specific IgG1, plates were coated with heat-killed S. aureus (heat-killed at 80° C. for 30 min). For total IgE, plates were coated with 2 μg/mL rat anti-mouse IgE (Southern Biotech). Following overnight incubation at 4° C., plates were blocked with 1% BSA for 30 min at 37° C. After blocking, serum (diluted 1/20 initially then 1/2 down the plate) was incubated at 37° C. for 2 hours, plates were washed 3 times in PBS and then incubated with 1:1000 anti-mouse IgG1-HRP (Southern Biotech) or anti-mouse IgE-HRP (Southern Biotech) for 1 hour at 37° C. Plates were washed 3 times in PBS and incubated with TMB substrate. Following development, TMB Stop Solution (BioLegend®) was added and plates were read at […].

In assay [3] the test system is differentiated TH1, TH2 or TH17 cells. Kind of assay: In vitro CD4+ T cell differentiation and cytokine production. It counts as cell-based, mouse. The conditions noted are these: 20 μM 4EGI-1, 48 hours. How it is done: Naïve CD4^+ T cells were isolated (EasySep™ Naïve CD4^+ T cell isolation; StemCell) and incubated in mouse T cell media (described under “Silencing of eIF4E in OT2 T cells by lentivirus transduction section”) containing soluble 1 μg/mL anti-CD28, cytokines, and anti-cytokine antibodies as detailed for polarization to TH1: 10 ng/mL mouse IL-12, 50 U/mL human IL-2, 10 μg/mL anti-mouse IL-4; TH2: 10 ng/mL mouse IL-4, 50 U/mL human IL-2, 10 μg/mL anti-mouse IFN-γ; TH17: 20 ng/mL mouse IL-6, 10 ng/mL mouse IL-23, 10 ng/mL mouse IL-113, 2 ng/mL human TGF-β1, 50 U/mL human IL-2 […], 10 μg/mL anti-mouse IFN-γ; and Treg: 2 ng/mL mouse TGFβ, 300 U/mL human IL-2. TH1, TH2, and TH17 differentiation kits (Cytobox) along with human IL-2 were purchased from Miltenyi Biotec. Mouse TGFβ was purchased from BioLegend®. Naïve CD4^+ T cells in conditions described above were activated on 10 μg/mL anti-CD3 coated plates for 3 days. Following differentiation, 20 μM 4EGI-1 was added to T cell cultures for 48 hours. Supernatant was removed and cytokine levels were determined using LEGENDPlex Mouse Th Cytokine Panel (BioLegend®).

`O=C(O)C(Cc1ccccc1[N+](=O)[O-])=NNc1nc(-c2ccc(Cl)c(Cl)c2)cs1` (mixture of isomers) [4EGI-1]: the “OT2 T cells populating the spleen vs non-treated OT2 T cells” value in assay [1] (34 days post-transfer) is given as “equal”. The “OT2 T cells populating the spleen vs non-treated OT2 T cells” value in assay [1] (assayed 7 days) is “equal”. For the same molecule, the “intracellular levels of eIF4E in recovered OT2 T cells” value in assay [1] (day 34 post-transfer) is recorded as “sustained reduction”. In assay [1] (following OVA/Alum immunization), the “reduction in number of OT2 TFH cells in the spleen” value is reported as “two-thirds”. Also, in assay [2] (25 mg/kg daily i.p., day 8), the “differentiation or effector function of TH1 cells (T-bet+ or IFN-γ+) in the skin” value is “no effect”; the “differentiation or effector function of TH17 cells (RORγT+ or IL17A+) in the skin” value was “no effect”; the “general skin inflammation (ear thickness and skin neutrophil levels)” value is “no effect”. Moreover, in assay [2] (cervical lymph nodes, day 8), the “formation of GC B cells in draining lymph nodes” value is given as “strongly reduced” and the “formation of TFH cells in draining lymph nodes” value is on record as “strongly reduced”. Besides, the “secretion of class-switched immunoglobulins” value in assay [2] (serum S. aureus-specific IgG1, day 8) was “strongly reduced”. Moreover, in assay [3], the “secretion of IFN-γ or TNF-α by differentiated TH1 cells” value is given as “not altered”, the “secretion of IL-13 by in vitro differentiated TH2 cells” value was “did not affect” and the “secretion of IL-17A or IL-17F by differentiated TH17 cells” value is listed as “not altered”.
